Assay results: article PMC11056381, “Characterization and evaluation of cytotoxic and antimicrobial activities of cyclotides from Viola japonica” (Scientific Reports, 2024)
Converted amounts (≈) assume the structure as drawn. Residues, ends and D or L forms follow the SMILES beside them.

Key:
[1] = tested on: Acinetobacter baumannii (ATCC19606); assay: microbe, parasite or virus in culture; conditions: Acinetobacter baumannii ATCC19606; 10^6 CFU/ml, 96-well plate, overnight 37 °C, visual clarity; performed at least three times
From the text: (§1) Viba 11, originally discovered in Viola baoshanensis[39] and found in other plants such as Viola tricolor[40], Viola betonicifolia, and Viola philippica, lacks biological activity studies. […] All purified cyclotides underwent antibacterial testing against Gram-positive bacterium Staphylococcus aureus (CMCC(B)26003-2-10) and Bacillus subtilis (CMCC(B)63501), Gram-negative bacteria, including Acinetobacter baumannii (ATCC19606), Escherichia coli (CMCC(B)44102-2-6), and Salmonella paratyphi (CMCC(B)50094-2-9).
(§2) Bacterial fluids are cultured overnight at 37 °C. The next day, the bacterial liquids are diluted to a concentration of 10^6 CFU/ml. Prepare different concentrations of cyclotide drugs and kanamycin sulfate in advance, and sequentially add the drugs and bacterial liquid to the 96-well plate. Negative controls consisted of sterile water and bacterial liquid. The plate is cultured overnight at 37 °C and observe whether the solution remains clear to see the growth of the bacterial suspension. Each test was performed three times at least.

[2] = tested on: Bacillus subtilis (CMCC(B)63501); assay: microbe, parasite or virus in culture; conditions: 10^6 CFU/ml, 96-well plate, overnight 37 °C, visual clarity, performed at least three times
From the text: as §1, §2

[3] = tested on: Escherichia coli (CMCC(B)44102-2-6); assay: microbe, parasite or virus in culture; conditions: 10^6 CFU/ml, 96-well plate, overnight 37 °C, visual clarity, performed at least three times
From the text: as §1, §2

[4] = tested on: Bacillus subtilis; assay: DAPI/PI staining, laser scanning confocal microscopy (membrane integrity); type: cell-based; conditions: B. subtilis 10^8 CFU/mL, 37 °C, 1-2 h, DAPI and PI staining
From the text: Many naturally occurring antimicrobial peptides (AMPs) are cationic. Cationic AMPs (CAMPs) exert bactericidal activity by mechanisms featuring cell membrane disruption. Cyclotides are likely to kill germ by disrupting their membranes. Laser scanning confocal microscopy can be used to study the ability of cyclotides to destroy bacterial membrane. 4′, 6-diaminyl-2-phenylindole (DAPI) is a blue fluorescent dye that can penetrate membranes and stain both living and dead strains, while propyl iodide (PI) stains only strains with damaged membranes, glowing red[46],[47]. In this study, the bracelet cyclotide family members viba 11 and vija 10 interacted with A. baumannii and B. subtilis in their logarithmic phase at 37 °C for 1–2 h. After the addition of DAPI and PI fluorescent dyes, the samples were incubated in a dark room at room temperature for 15 min for staining. The stained samples were then centrifuged to concentrate, resuspended, and applied to a slide for observation using a confocal laser scanning microscope (FLUOVIEW FV3000, Olympus). […] With increasing concentration, the blue and red fluorescence gradually overlapped. […] However, the magnification is not sufficient to detect further details of membrane disruption. Therefore, further exploration can be conducted using methods such as scanning electron microscopy (SEM) to study the antibacterial mechanism in depth.
Figure 5 Study on the antimicrobial mechanism of cyclotides. (A) Incubation of Acinetobacter baumannii with sterile water, 1 MIC and 4 MIC of viba 11. (B) Incubation of Bacillus subtilis with sterile water, 1 MIC and 4 MIC of vija 10. All samples were stained with DAPI and PI. The negative control group PI is not stained and the membrane is intact, while the membrane treated with cyclotides was stained and the membrane are destroyed. Scale bar: 20 μm. Magnification: 600×.
Take 50 μL of A. baumannii and B. subtilis (10^8 CFU/mL), and add 50 μL of sterile water, different concentrations of cyclotides viba 11 and vija 10 to achieve final concentrations of 1 MIC and 4 MIC respectively. Incubate at 37 °C for 1–2 h. Subsequently, add 4,6-diamino-2-phenylindole (DAPI) and propidium iodide (PI) dyes at 20 μg/mL each, and incubate in the dark for 15 min. Centrifuge at 5000 rpm for 3 min to concentrate, discard the majority of the supernatant, and resuspend the bacteria in the remaining small volume of liquid. Mix well and take 10 μL of the stained sample onto a glass slide, gently place a cover slip on top with forceps, avoiding the formation of bubbles during the pressing process. After sealing the cover slip, check with a laser confocal microscope, and the observation was conducted using an objective lens with the maximum magnification of 60 × . […]

[5] = tested on: 4T1 (mouse breast cancer cells); assay: MTT cytotoxicity assay; type: cell-based; conditions: 4T1 cells, 48 h incubation, mean ± SD of at least three repeats
Method: (§3) Five types of cells, namely A549 (human non-small cell lung cancer cells), T24 (human bladder cancer cells), 4T1 (mouse breast cancer cells), 7402 (human hepatocellular carcinoma cells), and THLE-3 (human hepatocytes cells), are selected for evaluating the cytotoxicity of viba 11, cycloviolacin O2, and vija 10 using the MTT (3-(4,5-dimethylthiazol-2-yl)-2,5-diphenyltetrazolium bromide) reagent.
(§4) To determine cell toxicity using MTT assay, cells are seeded in a 96-well plate and cultured for 24 h. After that, different concentrations of cyclotides are added to the cells and incubated for 48 h. MTT is then added to react with the cells, and after 4 h, the reaction is terminated by discarding the supernatant and adding dimethyl sulfoxide for resuspension. The absorbance at 570 nm is measured after 10 min of shaking at room temperature. Each test was performed three times at least. The data were analyzed using GraphPad Prism 8. During this process, the drug concentrations were transformed into logarithmic form with a base of 10 and plotted on the x-axis. Cell viability (%) = [A (cyclotides) − A (blank)]/[A (control) − A (blank)] × 100, which was represented on the y-axis. Using this method, we determined the IC50 value for each experiment, with each experiment repeated at least three times and the mean value calculated. The error was represented by the standard deviation of the IC50 obtained from three repetitions.

[6] = tested on: 7402 (human hepatocellular carcinoma cells); assay: MTT cytotoxicity assay; type: cell-based; conditions: 7402 cells, 48 h incubation, mean ± SD of at least three repeats
Method: as §3, §4

[7] = tested on: A549 (human non-small cell lung cancer cells); assay: MTT cytotoxicity assay; type: cell-based; conditions: 48 h incubation, mean ± SD of at least three repeats
Method: as §3, §4

[8] = tested on: T24 (human bladder cancer cells); assay: MTT cytotoxicity assay; type: cell-based; conditions: 48 h incubation, mean ± SD of at least three repeats
Method: as §3, §4

[9] = tested on: THLE-3 (human hepatocytes cells); assay: MTT cytotoxicity assay; type: cell-based; conditions: THLE-3 cells, 48 h incubation, mean ± SD of at least three repeats
Method: as §3, §4

CC[C@H](C)[C@@H]1NC(=O)[C@@H]2CSSC[C@@H]3NC(=O)[C@H](C(C)C)NC(=O)[C@H](CCCCN)NC(=O)[C@H](CO)NC(=O)[C@H](CO)NC(=O)[C@@H]4CSSC[C@H](NC(=O)[C@H](CO)NC(=O)[C@H](CCC(=O)O)NC(=O)CNC(=O)[C@H](CSSC[C@H](NC(=O)CNC(=O)[C@H](CC(C)C)NC(=O)[C@H](CC(C)C)NC(=O)[C@H](C)NC(=O)[C@H](CO)NC1=O)C(=O)N[C@@H](CO)C(=O)N4)NC(=O)[C@@H]1CCCN1C(=O)[C@H]([C@@H](C)CC)NC(=O)[C@H](CO)NC(=O)CNC(=O)[C@H](CC(N)=O)NC(=O)[C@H](CCCCN)NC(=O)[C@H](Cc1ccc(O)cc1)NC3=O)C(=O)N[C@@H](C(C)C)C(=O)N[C@@H](Cc1ccccc1)C(=O)N[C@@H]([C@@H](C)CC)C(=O)N1CCC[C@H]1C(=O)N2 [vija 10] (HELM PEPTIDE1{A.L.L.G.C.S.C.S.S.K.V.C.Y.K.N.G.S.I.P.C.G.E.S.C.V.F.I.P.C.I.S}$PEPTIDE1,PEPTIDE1,5:R3-20:R3|PEPTIDE1,PEPTIDE1,7:R3-24:R3|PEPTIDE1,PEPTIDE1,12:R3-29:R3|PEPTIDE1,PEPTIDE1,1:R1-31:R2$$$V2.0)
MIC [1]: 57 µM (≈ 179 µg/mL)
MIC [2]: 14.3 µM (≈ 45 µg/mL)
MIC [3]: > 28.5 µM
membrane integrity (PI red fluorescence) ([4]; 1 MIC): caused damage to the membrane integrity
membrane integrity (PI red fluorescence) ([4]; 4 MIC): majority of the cell membranes were ruptured
IC50 [5]: 244 ± 20 nM
IC50 [6]: 2180 ± 60 nM
IC50 [7]: 733 ± 200 nM
IC50 [8]: 3280 ± 150 nM
IC50 [9]: 2090 ± 60 nM
